Here are results for four compounds from ChEMBL document CHEMBL1139161, “[d4U]-butyne-[HI-236] as a non-cleavable, bifunctional NRTI/NNRTI HIV-1 reverse-transcriptase inhibitor” (Bioorg Med Chem Lett, 2007).

A value given as a limit tells only on which side of the number the result lay.

Data set [1] deals with Human immunodeficiency virus 1. Description: Antiviral activity against HIV1 3B in MT2 cells assessed as inhibition of viral-mediated T-cell death by MTT method. The data set is classed as functional, organism-based. The following applies: Human immunodeficiency virus 1, 3B.
Data set [2] relates to MT2. Description: Cytotoxicity against human MT2 cells. The data set is classed as cell-based.
A short description of data set [3]: Therapeutic index, ratio of IC50 for human MT2 cells to EC50 for HIV1 3B. The data set is classed as cell-based. Particulars: read-out: Ratio IC50/EC50.

As for `COc1ccc(OC)c(CCNC(=S)Nc2ccc(Br)cn2)c1`, the EC50 in data set [1] came out at 42 nM. This compound gave an IC50 in data set [2] of more than 1000 nM. Moreover, the selectivity ratio in data set [3] is more than 24.

Turning to `C#CCCOc1ccc(OC)cc1CCNC(=S)Nc1ccc(Br)cn1`, the EC50 in data set [1] turned out to be 23 nM. For the same compound, the IC50 in data set [2] was more than 1000 nM. For the same compound, in data set [3], the selectivity ratio was more than 44.

Consider `COc1ccc(OCCC#Cc2cn(C3C=CC(CO)O3)c(=O)[nH]c2=O)c(CCNC(=S)Nc2ccc(Br)cn2)c1` (configuration not stated), for which the concentration for a half-maximal effect (EC50) in data set [1] was found to be 250 nM. Also, in data set [2], the IC50 is 17000 nM. Moreover, in data set [3], the selectivity ratio amounted to 68.

For the compound `Cc1cn([C@H]2C=C[C@@H](CO)O2)c(=O)[nH]c1=O` [STAVUDINE], the EC50 in data set [1] is 2000 nM. For the same compound, in data set [2], the IC50 is more than 100000 nM. The selectivity ratio in data set [3] was more than 50.
